ChEMBL document CHEMBL4251615, “Discovery of anilino-furo[2,3-d]pyrimidine derivatives as dual inhibitors of EGFR/HER2 tyrosine kinase and their anticancer activity” (Eur J Med Chem, 2018)

Key:
UACC-62 = assay: Growth inhibition of human UACC62 cells assessed as cell growth at 10 uM incubated for 48 hrs by sulforhodamine B assay relative to control; format: functional; details: UACC-62, 48 h, read-out: Activity
[1] = target: Epidermal growth factor receptor (Homo sapiens, UniProt P00533); assay: Inhibition of recombinant human C-terminal His/N-terminal GST-tagged EGFR (668 to 1210 residues) expressed in baculovirus infected Sf9 cells at 10 uM using biotin-labeled poly[Glu:Tyr] (4:1) as substrate after 30 mins by Kinase-Glo plus luminescence assay relative to control
Epidermal growth factor receptor, sequence (P00533 whole entry, the tested form may be a part): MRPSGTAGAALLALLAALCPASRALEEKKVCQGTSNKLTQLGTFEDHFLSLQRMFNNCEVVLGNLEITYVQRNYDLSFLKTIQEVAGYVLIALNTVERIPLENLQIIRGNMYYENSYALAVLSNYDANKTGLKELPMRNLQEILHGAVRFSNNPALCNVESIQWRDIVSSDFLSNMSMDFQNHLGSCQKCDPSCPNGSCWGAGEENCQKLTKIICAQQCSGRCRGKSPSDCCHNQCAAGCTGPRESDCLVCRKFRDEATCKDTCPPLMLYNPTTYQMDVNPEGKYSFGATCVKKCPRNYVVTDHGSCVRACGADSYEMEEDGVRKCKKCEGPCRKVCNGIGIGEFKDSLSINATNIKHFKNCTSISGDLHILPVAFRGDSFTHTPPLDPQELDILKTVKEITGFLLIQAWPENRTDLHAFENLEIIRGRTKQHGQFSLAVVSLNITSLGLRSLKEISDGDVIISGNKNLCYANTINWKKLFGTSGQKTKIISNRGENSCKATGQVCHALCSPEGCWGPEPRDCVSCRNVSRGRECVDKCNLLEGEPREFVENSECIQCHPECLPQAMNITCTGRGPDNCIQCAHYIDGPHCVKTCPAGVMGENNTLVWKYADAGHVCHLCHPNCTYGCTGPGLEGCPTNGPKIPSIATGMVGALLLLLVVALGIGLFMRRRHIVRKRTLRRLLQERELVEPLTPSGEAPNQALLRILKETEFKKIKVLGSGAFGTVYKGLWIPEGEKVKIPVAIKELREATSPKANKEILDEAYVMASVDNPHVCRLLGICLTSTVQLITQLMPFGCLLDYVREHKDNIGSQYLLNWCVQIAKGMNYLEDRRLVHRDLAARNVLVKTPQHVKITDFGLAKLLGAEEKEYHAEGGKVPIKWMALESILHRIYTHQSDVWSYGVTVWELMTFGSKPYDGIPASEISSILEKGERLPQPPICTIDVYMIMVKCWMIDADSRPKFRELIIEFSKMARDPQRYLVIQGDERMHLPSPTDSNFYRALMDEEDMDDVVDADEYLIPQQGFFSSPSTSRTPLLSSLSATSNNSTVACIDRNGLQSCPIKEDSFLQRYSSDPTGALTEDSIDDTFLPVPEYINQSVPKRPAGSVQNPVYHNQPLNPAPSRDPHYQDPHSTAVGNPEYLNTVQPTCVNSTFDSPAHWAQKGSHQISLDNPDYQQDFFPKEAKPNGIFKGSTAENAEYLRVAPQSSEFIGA

NCI-H226 = assay: Growth inhibition of human NCI-H226 cells assessed as cell growth at 10 uM incubated for 48 hrs by sulforhodamine B assay relative to control; format: functional; details: NCI-H226, 48 h, read-out: Activity
BT-549 = assay: Growth inhibition of human BT549 cells assessed as cell growth at 10 uM incubated for 48 hrs by sulforhodamine B assay relative to control; format: functional; details: BT-549, 48 h, read-out: Activity
EKVX = assay: Growth inhibition of human EKVX cells assessed as cell growth at 10 uM incubated for 48 hrs by sulforhodamine B assay relative to control; format: functional; details: read-out: Activity
SF-268 = assay: Growth inhibition of human SF268 cells assessed as cell growth at 10 uM incubated for 48 hrs by sulforhodamine B assay relative to control; format: functional; details: SF-268, 48 h, read-out: Activity
M14 = assay: Growth inhibition of human M14 cells assessed as cell growth at 10 uM incubated for 48 hrs by sulforhodamine B assay relative to control; format: functional; details: M14, 48 h, read-out: Activity
Hs-578T = assay: Growth inhibition of human Hs 578T cells assessed as cell growth at 10 uM incubated for 48 hrs by sulforhodamine B assay relative to control; format: functional; details: read-out: Activity
NCI-H322M = assay: Growth inhibition of human NCI-H322M cells assessed as cell growth at 10 uM incubated for 48 hrs by sulforhodamine B assay relative to control; format: functional; details: read-out: Activity
A498 = assay: Growth inhibition of human A498 cells assessed as cell growth at 10 uM incubated for 48 hrs by sulforhodamine B assay relative to control; format: functional; details: A498, 48 h, read-out: Activity
HCT-15 = assay: Growth inhibition of human HCT15 cells assessed as cell growth at 10 uM incubated for 48 hrs by sulforhodamine B assay relative to control; format: functional; details: HCT-15, 48 h, read-out: Activity
HL-60(TB) = assay: Growth inhibition of human HL-60(TB) cells assessed as cell growth at 10 uM incubated for 48 hrs by sulforhodamine B assay relative to control; format: functional; details: HL-60, 48 h, read-out: Activity
MCF7 = assay: Growth inhibition of human MCF7 cells assessed as cell growth at 10 uM incubated for 48 hrs by sulforhodamine B assay relative to control; format: functional; details: MCF7, 48 h, read-out: Activity
MDA-MB-231 = assay: Growth inhibition of human MDA-MB-231 cells assessed as cell growth at 10 uM incubated for 48 hrs by sulforhodamine B assay relative to control; format: functional; details: MDA-MB-231, 48 h, read-out: Activity
SF-539 = assay: Growth inhibition of human SF539 cells assessed as cell growth at 10 uM incubated for 48 hrs by sulforhodamine B assay relative to control; format: functional; details: SF-539, 48 h, read-out: Activity
HCC 2998 = assay: Growth inhibition of human HCC2998 cells assessed as cell growth at 10 uM incubated for 48 hrs by sulforhodamine B assay relative to control; format: functional; details: HCC 2998, 48 h, read-out: Activity
COLO 205 = assay: Growth inhibition of human COLO205 cells assessed as cell growth at 10 uM incubated for 48 hrs by sulforhodamine B assay relative to control; format: functional; details: COLO 205, 48 h, read-out: Activity
MDA-MB-468 = assay: Growth inhibition of human MDA-MB-468 cells assessed as cell growth at 10 uM incubated for 48 hrs by sulforhodamine B assay relative to control; format: functional; details: MDA-MB-468, 48 h, read-out: Activity
NCI-H522 = assay: Growth inhibition of human NCI-H522 cells assessed as cell growth at 10 uM incubated for 48 hrs by sulforhodamine B assay relative to control; format: functional; details: NCI-H522, 48 h, read-out: Activity
K562 = assay: Growth inhibition of human K562 cells assessed as cell growth at 10 uM incubated for 48 hrs by sulforhodamine B assay relative to control; format: functional; details: K562, 48 h, read-out: Activity
MOLT-4 = assay: Growth inhibition of human MOLT4 cells assessed as cell growth at 10 uM incubated for 48 hrs by sulforhodamine B assay relative to control; format: functional; details: MOLT-4, 48 h, read-out: Activity
ACHN = assay: Growth inhibition of human ACHN cells assessed as cell growth at 10 uM incubated for 48 hrs by sulforhodamine B assay relative to control; format: functional; details: read-out: Activity
UO-31 = assay: Growth inhibition of human UO31 cells assessed as cell growth at 10 uM incubated for 48 hrs by sulforhodamine B assay relative to control; format: functional; details: UO-31, 48 h, read-out: Activity
CCRF-CEM = assay: Growth inhibition of human CCRF-CEM cells assessed as cell growth at 10 uM incubated for 48 hrs by sulforhodamine B assay relative to control; format: functional; details: read-out: Activity
786-0 = assay: Growth inhibition of human 786-0 cells assessed as cell growth at 10 uM incubated for 48 hrs by sulforhodamine B assay relative to control; format: functional; details: 786-0, 48 h, read-out: Activity
OVCAR-5 = assay: Growth inhibition of human OVCAR5 cells assessed as cell growth at 10 uM incubated for 48 hrs by sulforhodamine B assay relative to control; format: functional; details: OVCAR-5, 48 h, read-out: Activity
NCI-H23 = assay: Growth inhibition of human NCI-H23 cells assessed as cell growth at 10 uM incubated for 48 hrs by sulforhodamine B assay relative to control; format: functional; details: NCI-H23, 48 h, read-out: Activity
SK-OV-3 = assay: Growth inhibition of human SKOV3 cells assessed as cell growth at 10 uM incubated for 48 hrs by sulforhodamine B assay relative to control; format: functional; details: SK-OV-3, 48 h, read-out: Activity
SR = assay: Growth inhibition of human SR cells assessed as cell growth at 10 uM incubated for 48 hrs by sulforhodamine B assay relative to control; format: functional; details: read-out: Activity
SN12C = assay: Growth inhibition of human SN12C cells assessed as cell growth at 10 uM incubated for 48 hrs by sulforhodamine B assay relative to control; format: functional; details: read-out: Activity
NCI-H460 = assay: Growth inhibition of human NCI-H460 cells assessed as cell growth at 10 uM incubated for 48 hrs by sulforhodamine B assay relative to control; format: functional; details: NCI-H460, 48 h, read-out: Activity
OVCAR-8 = assay: Growth inhibition of human OVCAR8 cells assessed as cell growth at 10 uM incubated for 48 hrs by sulforhodamine B assay relative to control; format: functional; details: OVCAR-8, 48 h, read-out: Activity

Row | Compound | growth at 10 µM (UACC-62) | inhibition [1] | growth at 10 µM (NCI-H226) | growth at 10 µM (BT-549) | growth at 10 µM (EKVX) | growth at 10 µM (SF-268) | growth at 10 µM (M14) | growth at 10 µM (Hs-578T) | growth at 10 µM (NCI-H322M) | growth at 10 µM (A498) | growth at 10 µM (HCT-15) | growth at 10 µM (HL-60(TB)) | growth at 10 µM (MCF7) | growth at 10 µM (MDA-MB-231) | growth at 10 µM (SF-539) | growth at 10 µM (HCC 2998) | growth at 10 µM (COLO 205) | growth at 10 µM (MDA-MB-468) | growth at 10 µM (NCI-H522) | growth at 10 µM (K562) | further results
1 | Cc1cccc(Nc2ncnc3oc(C)c(C(=O)NCCO)c23)c1 | 83.1% | 36% | 93.3% | 90.7% | 91.8% | 98.4% | 103% | 100% | 95% | 74.7% | 93.7% | 84.6% | 94.8% | 84.1% | 92.5% | 99.4% | 99% | 87% | 91.8% | 90.2% | growth at 10 µM (MOLT-4): 57.4%; growth at 10 µM (ACHN): 94.8%; growth at 10 µM (UO-31): 86.2%; growth at 10 µM (CCRF-CEM): 74%; growth at 10 µM (786-0): 99%; growth at 10 µM (OVCAR-5): 95.3%; growth at 10 µM (NCI-H23): 92.8%; growth at 10 µM (SK-OV-3): 94.8%; growth at 10 µM (SR): 90.8%; growth at 10 µM (SN12C): 97.1%; growth at 10 µM (NCI-H460): 102%; growth at 10 µM (OVCAR-8): 104%
2 | Cc1oc2ncnc(Nc3cccc(Cl)c3)c2c1CO | 76.4% | 69% | 80.6% | 81.9% | 64.4% | 92.9% | 94% | 96.2% | 95% | 51.6% | 67.3% | 54% | 89.7% | 76.5% | 91.6% | 93.2% | 93.9% | 69.1% | 89.8% | 85.4% | growth at 10 µM (MOLT-4): 86.2%; growth at 10 µM (ACHN): 76.7%; growth at 10 µM (UO-31): 56.9%; growth at 10 µM (CCRF-CEM): 100%; growth at 10 µM (786-0): 78.3%; growth at 10 µM (OVCAR-5): 74.3%; growth at 10 µM (NCI-H23): 87.5%; growth at 10 µM (SK-OV-3): 101%; growth at 10 µM (SR): 62.2%; growth at 10 µM (SN12C): 88.6%; growth at 10 µM (NCI-H460): 94%; growth at 10 µM (OVCAR-8): 108%
3 | CCOC(=O)c1c(C)oc2ncnc(Nc3cccc(F)c3)c12 | 84% | 2% | 101% | 94.2% | 101% | 102% | 98.2% | 99% | 106% | 75.9% | 95.3% | 76.4% | 95.4% | 91.7% | 99.4% | 103% | 104% | 96.5% | 94.3% | 101% | growth at 10 µM (MOLT-4): 62.5%; growth at 10 µM (ACHN): 109%; growth at 10 µM (UO-31): 101%; growth at 10 µM (CCRF-CEM): 98.8%; growth at 10 µM (786-0): 95.7%; growth at 10 µM (OVCAR-5): 102%; growth at 10 µM (NCI-H23): 97.8%; growth at 10 µM (SK-OV-3): 101%; growth at 10 µM (SR): 78.6%; growth at 10 µM (SN12C): 89.1%; growth at 10 µM (NCI-H460): 101%; growth at 10 µM (OVCAR-8): 105%
